Measured values published in patent US20160106102A1, “KNOWN AND NEW HETEROCYCLIC COMPOUNDS AS PEST CONTROL AGENTS” (BAYER CROPSCIENCE AKTIENGESELLSCHAFT, priority 2013, published 2016).
Like-named read-outs stand apart in the source and are kept apart here.

Assays:
[1] = log P determination by LC-MS in the acidic range; type: physicochemical
Description: The LC-MS determination in the acidic range is effected at pH 2.7 using 0.1% aqueous formic acid and acetonitrile (contains 0.1% formic acid) as eluents, linear gradient from 10% acetonitrile to 95% acetonitrile. Alternatively, the determination is effected in the acidic range at pH 2.3 using 0.1% aqueous phosphoric acid and acetonitrile as eluents; linear gradient from 10% acetonitrile to 95% acetonitrile.

Myzus persicae [2] = test: Myzus persicae - sachet test; type: in vivo; conditions: 100% = all animals killed; for pest or weed control at 6 ppm / pest or weed control at 30 ppm: Myzus persicae, read-out: efficacy (kill in %)
Method in brief: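 Active ingredient dissolved with 2% N-methylpyrrolidone and 2% diacetone alcohol, diluted in water, then pipetted into nutrient medium. Plate sealed and paired with a plate carrying green peach aphids. Kill in % scored after the set time (100% = all dead, 0% = none dead).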

Myzus persicae [3] = test: Myzus persicae - spray test; type: in vivo; conditions: application rate of 500 g/ha, after 6 days, sprayed Chinese cabbage leaf discs infested by all stages, 100% = all aphids killed; for pest or weed control at 500 g/ha: Myzus persicae, foliar, 144 h, read-out: efficacy in %
Protocol: Myzus persicae—spray test Solvent: 78 parts by weight of acetone • • 1.5 parts by weight of dimethylformamide Emulsifier: 0.5 part by weight of alkylaryl polyglycol ether To produce an appropriate active ingredient formulation, 1 part by weight of active ingredient is mixed with the specified amounts of solvent and emulsifier, and the concentrate is diluted to the desired concentration with emulsifier-containing water. Discs of Chinese cabbage leaves (Brassica pekinensis) infested by all stages of the green peach aphid (Myzus persicae) are sprayed with an active ingredient formulation of the desired concentration. After 6 days, the efficacy in % is determined. 100% means that all the aphids have been killed; 0% means that no aphids have been killed.

[4] = application rate of 6 ppm in nutrient medium
[5] = application rate of 30 ppm in nutrient medium
[6] = pH 2.7, LC-MS in the acidic range, read-out: log P (acid)
[7] = pH 2.7, values given in the synthesis examples and NMR lists, read-out: HPLC-MS: log P

SMILES | log P (acid) ([1]; LC-MS in the acidic range) | efficacy (kill in %) (Myzus persicae [2]; [4]) | efficacy (kill in %) (Myzus persicae [2]; [5]) | efficacy in % (Myzus persicae [3]) | other results
Cc1cc(NC(=O)c2cccnc2)nn1Cc1nccn1C [Compound I-1-293] | −0.21 | 100% | 100% | 90% | 
Cc1cc(NC(=O)c2cccnc2)nn1C(=O)OC(C)(C)C [Compound I-1-18, tert-Butyl 5-methyl-3-[(pyridin-3-ylcarbonyl)amino]-1H-pyrazole-1-carboxylate] |  |  |  |  | chromatographic logP [1, 6]: 2.04; chromatographic logP [1, 7]: 2.04; pest or weed control at 6 ppm (Myzus persicae [2]; [4]): 100%; pest or weed control at 30 ppm (Myzus persicae [2]; [5]): 100%; pest or weed control at 500 g/ha (Myzus persicae [3]): 100%
Cc1c(F)c(NC(=O)c2cccnc2)nn1Cc1ncccn1 [Compound I-1-211] | 0.72 | 100% | 100% | 90% | 
Cc1cc(NC(=O)c2cccnc2)nn1CC#N [Compound I-1-11] | 0.7 | 100% | 100% | 80% | 
CCOC(CNC(=O)n1nc(NC(=O)c2cccnc2)cc1C)OCC [Compound I-1-170] | 1.88 | 100% | 100% | 90% | 
Cc1cc(NC(=O)c2cccnc2)nn1C(C)C#N (centres unmarked) [Compound I-1-214] | 0.92 | 100% | 100% | 100% | 
Cc1cc(NC(=S)c2cccnc2)nn1Cc1ncccn1 [Compound I-1-344] | 1.24 | 100% | 100% | 100% | 
Cc1cc(NC(=O)c2cccnc2)nn1C(=O)NCC1CCCCO1 (centres unmarked) [Compound I-1-313] | 1.78 | 100% | 100% | 90% | 
Cc1cc(NC(=O)c2cccnc2)nn1Cn1cncn1 [Compound I-1-224] | 0.58 | 100% | 100% | 100% | 
Cc1ccnn1Cn1nc(NC(=O)c2cccnc2)cc1C [Compound I-1-220] | 1.17 | 100% | 100% | 90% | 
CC[S+]([O-])CCn1nc(NC(=O)c2cccnc2)cc1C (centres unmarked) [Compound I-1-190] | 0.46 | 100% | 100% | 100% | 
CNC(=O)Cn1nc(NC(=O)c2cccnc2)cc1C [Compound I-1-124] | 0.29 | 100% | 100% | 90% | 
O=C(Nc1ncn(Cc2ccccc2Cl)n1)c1cccnc1 [Compound I-2-7, N-[1-(2-Chlorobenzyl)-1H-1,2,4-triazol-3-yl]nicotinamide] |  |  |  |  | chromatographic logP ([1]; HPLC on a reversed-phase column (C 18), pH 2.7, values given in the synthesis examples and NMR lists, read-out: HPLC-MS: log P): 1.22; chromatographic logP ([1]; reversed-phase HPLC column (C18), pH 2.7, Table 2, compounds of the formula (I-2), acidic range pH 2.7 or pH 2.3, read-out: log P (acid)): 1.22; pest or weed control at 500 g/ha (Myzus persicae [3]): 100%
Cc1cccc(Cn2nc(NC(=O)c3cccnc3)cc2C)c1 [Compound I-1-50] |  |  | 100% | 90% | 
COCCn1nc(N(C)C(=O)c2cccnc2)cc1C [Compound I-1-179] | 0.79 |  |  | 100% | 
Cc1cc(Cn2nc(NC(=O)c3cccnc3)cc2C)oc(=O)c1 [Compound I-1-154] |  | 100% | 100% | 90% | 
Cc1cc(NC(=O)c2cncc(Br)c2)nn1Cc1ccc(F)cc1 [Compound I-1-83] | 2.67 |  | 100% |  | 
COCn1cnc(NC(=O)c2cccnc2)n1 [Compound I-2-18] |  |  | 80% |  | log P (acid) ([1]; Table 2, compounds of the formula (I-2), acidic range pH 2.7 or pH 2.3): −0.23
CCc1cc(NC(=O)c2cccnc2)nn1Cc1ccc(Cl)nc1 [Compound I-1-58] | 1.67 | 80% | 100% |  | 
Cc1cc(NC(=O)c2ccc(Cl)nc2)nn1Cc1ccc(F)cc1 [Compound I-1-95] | 2.57 |  | 100% |  | 
O=C(Nc1ccn(Cc2cccc(F)c2)n1)c1cccnc1 [Compound I-1-70] | 1.59 |  | 100% |  | 

SMILES | log P (acid) ([1]; LC-MS in the acidic range) | efficacy (kill in %) (Myzus persicae [2]; [4]) | efficacy (kill in %) (Myzus persicae [2]; [5]) | efficacy in % (Myzus persicae [3]) | other results
Cn1nnc(NC(=O)c2cccnc2)n1 [Compound I-4-2] |  |  | 100% |  | log P (acid) ([1]; Table 4, HPLC on reversed-phase column (C 18), 55° C., acidic range (pH 2.7 or pH 2.3)): <−0.23
COc1ccc(C(=O)Nc2cc(C)n(Cc3ccccc3)n2)cn1 [Compound I-1-104] | 2.43 | 80% | 80% |  | 
CCOC(=O)Cn1nc(NC(=O)c2cccnc2)cc1C [Compound I-1-24] | 0.89 | 100% | 100% |  | 
Cc1cc(NC(=O)c2cccnc2)nn1-c1cccc(C#N)c1 [Compound I-1-217] | 1.59 | 100% | 100% |  | 
Cc1cc(NC(=O)c2cccnc2)nn1Cn1nc(C)n(C2CC2)c1=O [Compound I-1-146] | 1.05 | 100% | 100% |  | 
CSCCCNC(=O)n1nc(NC(=O)c2cccnc2)cc1C [Compound I-1-165] | 1.7 | 100% | 100% |  | 
Cc1c(C#N)c(NC(=O)c2cccnc2)nn1Cc1ncccn1 [Compound I-1-194] | 0.63 |  | 100% |  | 
Cc1ccc(C)c(Cn2ccc(NC(=O)c3cccnc3)n2)c1 [Compound I-1-81] | 2.11 |  | 100% |  | 
Cc1cc(NC(=O)c2cccnc2)nn1S(=O)(=O)N1CCC(C)CC1 [Compound I-1-162] | 2.51 | 100% | 100% |  | 
CCNC(=O)n1nc(NC(=O)c2cccnc2)cc1C [Compound I-1-288] | 1.24 | 100% | 100% |  | 
O=C(Nc1ccn(Cc2ncc(C(F)(F)F)cc2Cl)n1)c1cccnc1 [Compound I-1-116] | 1.86 | 100% | 100% |  | 
CC(NC(=O)Cn1nnc(NC(=O)c2cccnc2)n1)c1ccccc1 (centres unmarked) [Compound I-4-6, N-(2-{2-Oxo-2-[(1-phenylethyl)amino]ethyl}-2H-tetrazol-5-yl)nicotinamide] |  |  |  |  | chromatographic logP ([1]; reversed-phase HPLC column (C18), pH 2.7, Table 4, HPLC on reversed-phase column (C 18), 55° C., acidic range (pH 2.7 or pH 2.3), read-out: log P (acid)): 1.34; chromatographic logP ([1]; reversed-phase HPLC column (C18), pH 2.7, values given in the synthesis examples and NMR lists, read-out: HPLC-MS: log P): 1.34; pest or weed control at 6 ppm (Myzus persicae [2]; [4]): 100%; pest or weed control at 30 ppm (Myzus persicae [2]; [5]): 100%
Cc1cc(NC(=O)c2cccnc2)nn1C(=O)c1ccccc1Cl [Compound I-1-122, N-[1-(2-Chlorobenzoyl)-5-methyl-1H-pyrazol-3-yl]nicotinamide] |  |  |  |  | chromatographic logP [1, 6]: 2.27; chromatographic logP [1, 7]: 2.27; pest or weed control at 6 ppm (Myzus persicae [2]; [4]): 100%; pest or weed control at 30 ppm (Myzus persicae [2]; [5]): 100%
Cc1cc(NC(=O)c2cccnc2)nn1C(=O)NCc1ccccc1F [Compound I-1-326] | 2.04 | 100% | 100% |  | 
Cc1cc(NC(=O)c2cccnc2)nn1Cc1ccc2ccccc2n1 [Compound I-1-341] | 1.66 | 100% | 100% |  | 
Cc1cc(NC(=O)c2cncc(F)c2)nn1-c1ccccc1 [Compound I-1-350] | 2.18 |  | 80% |  | 
Cc1cc(NC(=O)c2cccnc2)nn1Cc1ccc2c(c1)CCCC2 [Compound I-1-158] | 2.73 |  | 100% |  | 
Cc1cc(N(Cc2nc(-c3ccccc3)no2)C(=O)c2cccnc2)nn1Cc1nc(-c2ccccc2)no1 [Compound I-1-305] | 3.26 |  | 100% |  | 
Cc1cc(NC(=O)c2cncc(Cl)c2)nn1Cc1ncccn1 [Compound I-1-276] | 1.4 | 100% | 100% |  | 
COC(=O)C(C)(C)NC(=O)Cn1nc(NC(=O)c2cncc(F)c2)cc1C [Compound I-1-41] | 1.33 |  |  | 90% | 
